Measurements published in patent US20090217394A1 (priority 2005, published 2009).

Columns and labels:
non-Tg mouse = assay: Blood insulin level after DT in non-Tg mouse; type: in vivo
Description: (§1) Moreover, the blood insulin level of an SCID-Ins-TRECK-Tg mouse was compared with that of a non-Tg mouse. When DT had not yet been administered, there had been no difference between them. […] However, the SCID-Ins-TRECK-Tg mouse was not able to secrete insulin, and thus the blood insulin level thereof was not changed (FIG. 5B) in it.

mouse cells = settings: toxin added from outside of the cells; cited from earlier work
[1] = tested on: islets of Langerhans in the pancreas of the transgenic mouse; assay: Histological analysis of transgenic mouse pancreas after diphtheria toxin; type: in vivo
SCID-Ins-TRECK-Tg mouse = assay: Blood insulin level after DT in transgenic mouse; type: in vivo
Description: as §1

mouse = settings: dosage of 50 μg/kg
SCID-Ins-TRECK-Tg mice [2] = assay: Blood glucose level after intraperitoneal diphtheria toxin in transgenic mice; type: in vivo, mouse
[3] = tested on: non-transgenic mouse born of the same mother; assay: Blood glucose level after diphtheria toxin in non-transgenic littermate; type: in vivo
SCID-Ins-TRECK-Tg mice [4] = assay: Decrease in blood glucose level by administration of insulin to DT-induced hyperglycemic mice; type: in vivo, mouse
[5] = biological target: human HB-EGF (L148S/P149T) (human) (UniProt Q99075); assay: cell-based or functional assay
[6] = 5th day after administration of DT
[7] = after DT, 10 minutes after 2 g/kg oral glucose
[8] = 7 days after 5 μg/kg diphtheria toxin, immunostaining
[9] = diphtheria toxin 50 ng/kg to 50 μg/kg intraperitoneal, within two days

Sequence of UniProt Q99075 (Q99075 63-148 L148S): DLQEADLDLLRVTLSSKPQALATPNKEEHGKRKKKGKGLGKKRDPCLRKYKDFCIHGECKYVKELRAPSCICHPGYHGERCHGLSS

diphtheria toxin
blood insulin level (non-Tg mouse; [6]): not changed
blood insulin level after glucose load (non-Tg mouse; [7]): rapidly increased
resistance of mouse cells to diphtheria toxin relative to human cells (mouse cells): ≥ 1,000 times
insulin positive cells (β cells) in islets of Langerhans [1, 8]: significantly decreased
number of α cells stained with anti-glucagon antibodies [1, 8]: increased
cells in the islets of Langerhans (HE staining) ([1]; 7 days after 40 μg/kg diphtheria toxin): damaged
blood insulin level (SCID-Ins-TRECK-Tg mouse; [6]): significantly decreased
blood insulin level after glucose load (SCID-Ins-TRECK-Tg mouse; [7]): not changed
abnormality after administration (mouse): no abnormality is observed
time for which high blood glucose level was maintained (SCID-Ins-TRECK-Tg mice [2]; diphtheria toxin 50 ng/kg to 20 μg/kg intraperitoneal): ≥ 50 days
blood glucose level from four days after administration (SCID-Ins-TRECK-Tg mice [2]; diphtheria toxin 50 ng/kg to 20 μg/kg intraperitoneal, from four days after administration): ≥ 400 mg/dL
blood glucose level two days after administration (SCID-Ins-TRECK-Tg mice [2]; diphtheria toxin 50 ng/kg to 20 μg/kg intraperitoneal, two days after administration): ≥ 200 mg/dL
blood glucose level within two days after administration (SCID-Ins-TRECK-Tg mice [2]; [9]): ≥ 200 mg/dL
glucose and ketone bodies in urine (SCID-Ins-TRECK-Tg mice [2]; [9]): detection of glucose and ketone bodies in urine
duration of hyperglycemic state (SCID-Ins-TRECK-Tg mice [2]; single DT administration, 5 ng/kg to 50 μg/kg intraperitoneal): ≥ 2 months
minimum DT amount necessary for inducing hyperglycemia (SCID-Ins-TRECK-Tg mice [2]; single intraperitoneal administration): 50 ng/kg
changes in blood glucose levels due to administration of the toxin [3]: no changes

NovoRapid injection: rapid-acting insulin analogue (NovoRapid injection; NovoNordisk Pharma)
blood glucose level after insulin (SCID-Ins-TRECK-Tg mice [4]; 1 U intraperitoneal, severe hyperglycemia (blood glucose >600 mg/dl)): decreased to a normal level
blood glucose level after insulin (SCID-Ins-TRECK-Tg mice [4]; 100 mU insulin, mouse at 500 mg/dl or higher after 1 μg/kg DT (FIG. 5A)): rapidly decreased to a normal value
blood glucose level after insulin (SCID-Ins-TRECK-Tg mice [4]; 100 mU intraperitoneal, 7 days after 1 μg/kg DT, mouse with blood glucose 500 mg/dl (FIG. 5C)): normalized
blood glucose level after insulin (SCID-Ins-TRECK-Tg mice [4]; 100 mU intraperitoneal, severe hyperglycemia (blood glucose >600 mg/dl)): no changes

diphtheria toxin (from UniProt P00588 33-567)
minimum DT amount necessary for inducing hyperglycemia [5]: 50 ng/kg
